Measurements as given in PMC10722540, “Red Wine Inspired Chemistry: Hemisynthesis of Procyanidin Analogs and Determination of Their Protein Precipitation Capacity, Octanol–Water Partition, and Stability in Phosphate-Buffered Saline” (Journal of Agricultural and Food Chemistry, 2023).

Columns and labels:
[1] = Octanol–water partition, shake-flask method; assay type: physicochemical; conditions: 200 μM, n-octanol/water, 2 h mixing, SE in parentheses
Experimental: The shake-flask method was done using 2 mL Eppendorf tubes and three replicates. […] After mixing, aliquots of 500 μL were transferred to new Eppendorf tubes, and 500 μL of n-octanol was added that had been saturated with water. The solvent systems were mixed in a vortex mixer for 2 h, and then both the water and the n-octanol layers as well as the initial water solution were analyzed by UPLC–DAD using the shorter phenyl column (section 2.4). The chromatograms were integrated using TargetLynx software (version 4.2), and the octanol–water partition coefficient, log P, was calculated as the log10 of the ratio of area in n-octanol phase to the area in water phase. Recovery % was calculated by summing the areas in both phases and dividing the summation with the area measured from the initial water phase.

[2] = molecular target: T1, bovine serum albumin (BSA) (Bos taurus, UniProt P02769); assay: UPLC–DAD analysis of supernatants from the PPC experiment (proportion of precipitated BSA); assay type: biochemical; conditions: highest tested concentration of 2.25 mM (molar ratio to BSA 23:1)
T1 construct: purchased Sigma-Aldrich (MO, USA)
T1 sequence (P02769 25-607): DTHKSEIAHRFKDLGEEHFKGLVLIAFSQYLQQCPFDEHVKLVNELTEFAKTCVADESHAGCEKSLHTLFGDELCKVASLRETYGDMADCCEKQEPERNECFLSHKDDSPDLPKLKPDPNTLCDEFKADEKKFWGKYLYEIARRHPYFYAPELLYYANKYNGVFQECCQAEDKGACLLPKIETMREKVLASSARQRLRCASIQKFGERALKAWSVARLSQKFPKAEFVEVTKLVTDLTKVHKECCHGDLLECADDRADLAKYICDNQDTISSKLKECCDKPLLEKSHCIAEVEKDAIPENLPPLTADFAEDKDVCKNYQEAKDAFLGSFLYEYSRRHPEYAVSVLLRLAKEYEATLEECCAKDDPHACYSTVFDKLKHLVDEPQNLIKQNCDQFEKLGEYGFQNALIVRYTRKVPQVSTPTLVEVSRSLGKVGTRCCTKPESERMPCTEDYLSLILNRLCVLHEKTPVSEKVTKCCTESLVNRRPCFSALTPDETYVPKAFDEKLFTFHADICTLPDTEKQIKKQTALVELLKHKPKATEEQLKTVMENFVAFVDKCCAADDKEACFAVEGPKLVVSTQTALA
Experimental: (§1) PPC was measured by using the turbidimetric well-plate reader assay of Engström et al. (2019), with few modifications to the volumes of the reactants and to the number of replicates, for instance. The analyzes of the supernatants were done following Engström et al. (2022).[21] Briefly, 75 μL of BSA solution and 75 μL of the solutions of compounds 2–14 were pipetted to well plates, and the intensity of the forming haze was measured periodically at 420 nm using a well-plate reader. The PPC of the PC analogue 1 was not measured because it was not soluble in suitable solvents. The reactions were monitored for 30 min, and the highest intensities were recorded. A single background measurement was done at each concentration with all the components in the wells but the BSA. The reactions were done in triplicates (and in duplicates with PC C1), and the concentrations of the compounds 2–14 in the reaction mixtures were 0.25 0.65, 1.05, 1.45, 1.85, and 2.25 mM. The concentration of the BSA was kept constant at 0.1 mM. Therefore, the tested molar ratios to BSA were 2.5:1, 6.5:1, 10.5:1, 14.5:1, 18.5:1, and 22.5:1. After the 30 min, the supernatants and precipitates of the replicates were combined in a 1.5 mL Eppendorf tube and separated by centrifuging. The supernatants were then analyzed by UPLC–DAD using the shorter phenyl column (section 2.4) to quantify the leftover compounds 2–14 and BSA. Leftover BSA was quantified using a separately prepared linear calibration curve (1–125 μM), and the compounds 2–14 were quantified by analyzing the background solutions from the well-plate reader assay and constructing a calibration curve from these analyzes. BSA was quantified at 280 nm and compounds 2–14 at 280–320 nm. The wavelength of maximal UV absorption for compounds 2–14 could not be utilized in quantification because the diode array detector was saturated at the optimal wavelengths due to the high concentrations used in the well-plate reader assay. Therefore, off-optimal wavelengths were chosen for quantification separately for each compound 2–14 to reduce intensities and to obtain linear fits for calibration curves.

[3] = Stability in phosphate buffered saline; assay type: physicochemical; conditions: phosphate buffered saline, pH 7.4, PBS pH 7.4, 0.01 M phosphate, 150 μM, first-order kinetics, UV 280 nm; read-out: half-life (t1/2)
Experimental: The stabilities of the compounds were measured in PBS, which was prepared from commercially available tablets that were dissolved in ultrapure water. The phosphate concentration was 0.01 M, the pH was 7.4, and the potassium and sodium chloride concentrations were 0.0027 and 0.137 M, respectively. […] The compounds were dissolved in 2 mL of the PBS solution in Eppendorf tubes, vortexed for approximately 15 min, and filtered through a 0.2 μm PTFE filter to a 2 mL UPLC vial. The solutions were analyzed with the UPLC-DAD-HESI-Orbitrap-MS instrument using the longer phenyl column (section 2.4), and repeated injections were done every 47.5 min for approximately 12 h. […] The UV chromatograms at 280 nm were integrated using the QuanBrowser module in Xcalibur software (version 4.1.31.9), and the main degradation products were identified in QualBrowser by their high-resolution mass spectra and UV spectra. With each compound, the measured areas were transformed to proportional areas by dividing all areas with the initial area in the first injection of the time series, and the data was further loge transformed and fitted with first-order linear regression curves. The regression curves were supplemented with 95% confidence intervals to visualize the uncertainty in the fitted curves. The half-lives were calculated from the slope (k) parameters of the linear regression model using the following equation: [drawing 1]

[4] = molecular target: T1, bovine serum albumin (BSA); assay: Protein precipitation capacity (PPC), turbidimetric well-plate reader assay with BSA, log-normal dose–response model; assay type: biochemical; conditions: SE in parentheses
Experimental: as §1
All statistical analyzed were performed with R (version 4.2.2) in the integrated development environment Rstudio (version 2022.12.0.353).[23],[24] The PPC data was fitted with a dose–response model using the package drc.[25] Various models, e.g., logit and log-normal models, were compared using the mselect function, and the best fitting model was chosen based on the Akaike’s information criterion and residual error when comparing all models, and log-likelihood was used when comparing nested models. All compounds were assumed to have the same upper and lower asymptotes; the former was estimated from the experimental data, and the latter was fixed at zero.

O=C(O[C@@H]1Cc2c(O)cc(O)cc2O[C@@H]1c1cc(O)c(O)c(O)c1)c1cc(O)c(O)c(O)c1 [Compound 14, Epigallocatechin-3-gallate, reference compound]
KOW [1]: 13.58 (0.06)
logP at 2 h ([1]; read-out: log P (log10KOW)): 1.13
proportion of BSA precipitated [2]: almost all
half-life at 150 μM [3]: 84 min
ED90 (mM) ([4]; BSA 0.1 mM): 1.76 (0.06) mM
EC50 ([4]; concentration giving 50% of maximal absorbance (420 nm haze), BSA 0.1 mM, read-out: ED50 (the source's name)): 890 µM
slope ([4]; slope parameter of log-normal dose–response model): 1.88 (0.07)
